The series can be described thus: Human hepatocyte clearance (relay assay). As to conditions: human, hepatocytes. From the text: Briefly, cryopreserved human primary hepatocytes were thawed and cultured as described above.

Molecules are shown by their SMILES.

The molecule `C[C@@H](CNC(=O)[C@H](O)C(C)(C)CO)NC(=O)c1cc(C#N)ccc1F` [MMV693182] displayed a hepatocyte CLint of 0.2 µL/min/1e6 cells.

The record behind these values is publication PMC9021288 (Nature Communications, 2022).
